Results published in patent publication US20190031618A1, “BENZIMIDAZOLE DERIVATIVES USEFUL AS CB-1 INVERSE AGONISTS” (Janssen Pharmaceutica NV, priority 2015, published 2019).

How the values were obtained:
[1] = target: Human CB1R (Cannabinoid receptor 1) (Homo sapiens, UniProt P21554); assay: CB-1 in vitro cAMP (HTRF) assay; assay type: cell-based; settings: HEK cells, cAMP HTRF, 250 nM forskolin; mean where tested more than once; read-out: CB1 HEK_cAMP EC50
Summary of the method: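 Intracellular cAMP from HTRF ratio (d2-cAMP vs Eu-cryptate anti-cAMP), converted to nM via per-plate standards, in stable human CB1R HEK-293 cells.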

[2] = target: Human CB2R (Cannabinoid receptor 2) (Homo sapiens, UniProt P34972); assay: CB-2 in vitro cAMP (HTRF) assay; assay type: cell-based; settings: HEK cells, cAMP HTRF, 250 nM forskolin; mean where tested more than once; read-out: CB2 HEK_cAMP EC50
Human CB2R (Cannabinoid receptor 2), sequence (P34972 whole entry): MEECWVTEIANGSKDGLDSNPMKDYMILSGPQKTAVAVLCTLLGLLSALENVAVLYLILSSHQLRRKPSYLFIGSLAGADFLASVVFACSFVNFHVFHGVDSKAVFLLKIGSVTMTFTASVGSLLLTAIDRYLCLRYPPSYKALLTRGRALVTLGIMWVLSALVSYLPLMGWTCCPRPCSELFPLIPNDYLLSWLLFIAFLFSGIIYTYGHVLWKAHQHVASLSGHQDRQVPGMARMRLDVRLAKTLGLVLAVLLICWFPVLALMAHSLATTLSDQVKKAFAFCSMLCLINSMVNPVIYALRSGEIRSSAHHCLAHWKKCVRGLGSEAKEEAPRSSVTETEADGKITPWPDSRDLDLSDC
Summary of the method: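 HEK-293 cells stably expressing receptor, plated overnight at 4E5 cells/mL, tested with 1/3 serial dilutions of compound in HBSS/HEPES/BSA buffer with 0.5 mM IBMX and forskolin (diluted to 1.5 μM in buffer). cAMP measured by competitive HTRF immunoassay (d2-cAMP, cryptate anti-cAMP), signal inversely proportional to cAMP.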

Human CB1R (Cannabinoid receptor 1), sequence (P21554 whole entry): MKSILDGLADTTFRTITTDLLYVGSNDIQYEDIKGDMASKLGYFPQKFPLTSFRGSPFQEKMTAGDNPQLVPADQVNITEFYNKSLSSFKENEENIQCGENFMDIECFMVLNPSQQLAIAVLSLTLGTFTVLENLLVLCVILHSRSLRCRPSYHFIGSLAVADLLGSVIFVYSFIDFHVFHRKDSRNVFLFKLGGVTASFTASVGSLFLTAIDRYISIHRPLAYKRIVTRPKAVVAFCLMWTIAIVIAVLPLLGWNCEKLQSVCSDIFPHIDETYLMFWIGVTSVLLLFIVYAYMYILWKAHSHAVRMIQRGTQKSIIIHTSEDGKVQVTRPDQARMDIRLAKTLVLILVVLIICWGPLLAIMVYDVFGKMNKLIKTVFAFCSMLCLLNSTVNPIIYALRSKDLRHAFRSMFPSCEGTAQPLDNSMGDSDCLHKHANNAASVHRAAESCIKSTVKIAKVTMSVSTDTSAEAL

Row | SMILES | EC50 [1] [nM] | EC50 [2] [nM]
1 | NC(=O)CCC(=O)N1CCC(n2c(C3CC3)nc3ccc(C(c4ccc(Cl)cc4)c4ccc(Cl)cc4)cc32)CC1 [Example 273] | 33.6 | 9600
2 | NS(=O)(=O)N1CCC(n2c(C3CC3)nc3ccc(C(c4ccc(Cl)cc4)c4ccc(Cl)cc4)cc32)CC1 [Example 274] | 133 | > 10000
3 | COc1ccccc1S(=O)(=O)N1CCC(n2c(C3CC3)nc3ccc(C(c4ccc(Cl)cc4)c4ccc(Cl)cc4)cc32)CC1 [Example 275] | 1.6 | > 10000
4 | NC(=O)CC(=O)N1CCC(n2c(C3CC3)nc3ccc(C(c4ccc(Cl)cc4)c4ccc(Cl)cc4)cc32)CC1 [Example 278] | 50.5 | > 10000
5 | O=S(=O)(c1ccc(OC(F)(F)F)cc1)N1CCC(n2c(C3CC3)nc3ccc(C(c4ccc(Cl)cc4)c4ccc(Cl)cc4)cc32)CC1 [Example 279] | 32.2 | > 10000
6 | COc1ccc(S(=O)(=O)N2CCC(n3c(C4CC4)nc4ccc(C(c5ccc(Cl)cc5)c5ccc(Cl)cc5)cc43)CC2)cc1 [Example 281] | 12.5 | > 10000
7 | CC(C)(C)c1nc2ccc(C(c3ccc(Cl)cc3)c3ccc(Cl)cc3)cc2n1C1CCN(S(=O)(=O)C(F)(F)F)CC1 [Example 291] | 2260 | > 10000
8 | CC(C)(C)c1nc2ccc(C(O)(c3ccc(Cl)cc3)c3ccc(Cl)cc3)cc2n1C1CCN(S(=O)(=O)C(F)(F)F)CC1 [Example 292] | 2890 | > 10000
9 | O=S(=O)(N1CCC(n2c(CO)nc3ccc(C(O)(c4ccc(Cl)cc4)c4ccc(Cl)cc4)cc32)CC1)C(F)(F)F [Example 293] | 7430 | > 10000
10 | CCc1nc2ccc(C(c3ccc(Cl)cc3)c3ccc(Cl)cc3)cc2n1C1Cc2ccccc2C1 [Example 297] | 615 | > 10000
11 | Clc1ccc(C(c2ccc(Cl)cc2)c2ccc3ncn(C4Cc5ccccc5C4)c3c2)cc1 [Example 298] | 906 | 9000
12 | CC(C(O)c1ccccc1)n1c(C2CC2)nc2ccc(C(c3ccc(Cl)cc3)c3ccc(Cl)cc3)cc21 (stereo not shown) [Example 299] | 578 | 1030
13 | Clc1ccc(C(c2ccc(Cl)cc2)c2ccc3nc(C4CC4)n(C4Cc5ccccc5C4)c3c2)cc1 [Example 300] | 163 | > 10000
14 | O=S(=O)(N1CCC(n2c(C3CC3)nc3ccc(C(O)(c4ccc(Cl)cc4)c4ccc(Cl)cc4)cc32)CC1)C(F)(F)F [Example 303] | 17.4 | > 10000
15 | CCc1nc2ccc(C(O)(c3ccc(Cl)cc3)c3ccc(Cl)cc3)cc2n1C1CCN(S(=O)(=O)C(F)(F)F)CC1 [Example 308] | 63.6 | > 10000
16 | CCc1nc2ccc(C(c3ccc(Cl)cc3)c3ccc(Cl)cc3)cc2n1CCc1cccc(Cl)c1 [Example 311] | 17.2 | 8600
17 | CCc1nc2ccc(C(c3ccc(Cl)cc3)c3ccc(Cl)cc3)cc2n1CCc1ccc(C(F)(F)F)cc1 [Example 314] | 20.1 | 2790
18 | O=S(=O)(N1CCC(n2c(C3CCC3)nc3ccc(C(O)(c4ccc(Cl)cc4)c4ccc(Cl)cc4)cc32)CC1)C(F)(F)F [Example 319] | 22.5 | > 10000
19 | O=S(=O)(N1CCC(Cn2cnc3ccc(C(c4ccc(Cl)cc4)c4nccs4)cc32)CC1)C(F)(F)F (stereo not shown) [Example 322] | 621 | > 10000
20 | CCc1nc2ccc(C(c3ccc(Cl)cc3)c3nccs3)cc2n1CC1CCN(S(=O)(=O)C(F)(F)F)CC1 (stereo not shown) [Example 323] | 16.5 | > 10000
21 | CC(Cc1ccc(Cl)cc1)n1c(C(F)F)nc2ccc(C(c3ccc(Cl)cc3)c3nccs3)cc21 (stereo not shown) [Example 329] | 379 | > 10000
22 | CCOC(=O)N1CCC(n2c(CC)nc3ccc(C(c4ccc(Cl)cc4)c4ccc(Cl)cc4)cc32)CC1 [Example 332] | 14.7 | 4700
23 | Clc1ccc(CCn2c(C3CC3)nc3ccc(C(c4ccc(Cl)cc4)c4nccs4)cc32)cc1 (stereo not shown) [Example 338] | 59.7 | 4000
24 | OC(c1ccc(Cl)cc1)(c1ccc2nc(CC(F)(F)F)n(CCc3cccc(Cl)c3)c2c1)c1nccs1 (stereo not shown) [Example 339] | 2410 | > 10000
25 | FC(F)(F)Cc1nc2ccc(C(c3ccc(Cl)cc3)c3nccs3)cc2n1CCc1cccc(Cl)c1 (stereo not shown) [Example 340] | 1440 | > 10000
26 | OC(c1ccc(Cl)cc1)(c1ccc2nc(C3CC3)n(C3CCc4ccccc4C3)c2c1)c1nccs1 (stereo not shown) [Example 341] | 1330 | > 10000

Further lines, results first:

Row | EC50 [1] [nM] | EC50 [2] [nM] | SMILES
27 | 6.6 | 9900 | CS(=O)(=O)N1CCC(n2c(C3CC3)nc3ccc(C(c4ccc(Cl)cc4)c4ccc(Cl)cc4)cc32)CC1 [Example 270]
28 | 2.1 | > 10000 | O=S(=O)(N1CCC(n2c(C3CCCO3)nc3ccc(C(c4ccc(Cl)cc4)c4ccc(Cl)cc4)cc32)CC1)C(F)(F)F (stereo not shown) [Example 271]
29 | 10.8 | > 10000 | O=S(=O)(c1ccccc1C(F)(F)F)N1CCC(n2c(C3CC3)nc3ccc(C(c4ccc(Cl)cc4)c4ccc(Cl)cc4)cc32)CC1 [Example 272]
30 | 10.5 | > 10000 | O=S(=O)(c1ccc(C(F)(F)F)cc1)N1CCC(n2c(C3CC3)nc3ccc(C(c4ccc(Cl)cc4)c4ccc(Cl)cc4)cc32)CC1 [Example 280]
31 | 7.3 | > 10000 | O=S(=O)(c1ccc(F)cc1)N1CCC(n2c(C3CC3)nc3ccc(C(c4ccc(Cl)cc4)c4ccc(Cl)cc4)cc32)CC1 [Example 282]
32 | 3.6 | 960 | O=S(=O)(c1ccccc1)N1CCC(n2c(C3CC3)nc3ccc(C(c4ccc(Cl)cc4)c4ccc(Cl)cc4)cc32)CC1 [Example 283]
33 | 5.7 | > 10000 | O=S(=O)(c1cccc(C(F)(F)F)c1)N1CCC(n2c(C3CC3)nc3ccc(C(c4ccc(Cl)cc4)c4ccc(Cl)cc4)cc32)CC1 [Example 284]
34 | 3.4 | > 10000 | O=S(=O)(N1CCC(n2c(C3CCCO3)nc3ccc(C(O)(c4ccc(Cl)cc4)c4ccc(Cl)cc4)cc32)CC1)C(F)(F)F (stereo not shown) [Example 285]
35 | 2.4 | 4590 | COc1cc(C(c2ccc(Cl)cc2)c2ccc(Cl)cc2)cc2c1nc(C1CC1)n2C1CCN(S(=O)(=O)C(F)(F)F)CC1 [Example 287]
36 | 2.3 | > 10000 | O=S(=O)(N1CCC(Cn2c(C3CCC3)nc3ccc(C(c4ccc(Cl)cc4)c4ccc(Cl)cc4)cc32)CC1)C(F)(F)F [Example 288]
37 | 4.6 | > 10000 | O=S(=O)(N1CCC(Cn2c(C3CC3)nc3ccc(C(O)(c4ccc(Cl)cc4)c4ccc(Cl)cc4)cc32)CC1)C(F)(F)F [Example 294]
38 | 5 | 9000 | O=S(=O)(N1CCC(O)(Cn2c(C3CC3)nc3ccc(C(c4ccc(Cl)cc4)c4ccc(Cl)cc4)cc32)CC1)C(F)(F)F [Example 295]
39 | 3.4 | 5200 | FC(F)(F)c1ccc(CCn2c(C3CC3)nc3ccc(C(c4ccc(Cl)cc4)c4ccc(Cl)cc4)cc32)cc1 [Example 309]
40 | 6.2 | 4030 | O=S(=O)(N1CCC(n2c(C3CC3)nc3ccc(C(c4ccc(Cl)cc4)c4ccc5c(c4)OCO5)cc32)CC1)C(F)(F)F (stereo not shown) [Example 321]
41 | 10.2 | 3880 | O=S(=O)(N1CCC(Cn2c(C3CC3)nc3ccc(C(c4ccc(Cl)cc4)c4nccs4)cc32)CC1)C(F)(F)F (stereo not shown) [Example 324]
